What was measured:
[1] = system: mice; assay: Forced tail suspension test, immobility time; format: in vivo; conditions: 15 mg/kg oral (as free base), versus vehicle control
Procedure: The product of Example 11 is tested at MDS Pharma by oral administration to mice (n=8) to determine its effect on total immobility time during forced tail suspension, using essentially the procedure of “Drug Discovery and Evaluation”, Vogel H G and Vogel W H (eds.), p. 304, 1997, Springer-Verlag, New York.

[2] = system: pooled human liver microsomes; assay: Human liver microsome metabolic stability assay; format: in vitro ADME; conditions: for % Remaining 30 min / % Remaining 60 min / % Remaining 120 min: pooled human liver microsomes 1.0 mg/mL, 1 μM test compound, 37° C.
Procedure: The objectives of the present study were to determine the metabolic stability of the test compounds in pooled liver microsomal incubations and to perform full scan LC-MS analysis for the detection of major metabolites. Samples of the test compounds, exposed to pooled human liver microsomes, were analyzed using HPLC-MS (or MS/MS) detection. For determining metabolic stability, multiple reaction monitoring (MRM) was used to measure the disappearance of the test compounds. For metabolite detection, Q1 full scans were used as survey scans to detect the major metabolites.
Human liver microsomes were obtained from Absorption Systems L.P. (Exton, Pa.). The incubation mixture was prepared as follows:
The reaction mixture, minus cofactors, was prepared. An aliquot of the reaction mixture (without cofactors) was incubated in a shaking water bath at 37° C. for 3 minutes. Another aliquot of the reaction mixture was prepared as the negative control. The test compound was added into both the reaction mixture and the negative control at a final concentration of 1 μM. An aliquot of the reaction mixture was prepared as a blank control, by the addition of plain organic solvent (not the test compound). The reaction was initiated by the addition of cofactors (not into the negative controls), and then incubated in a shaking water bath at 37° C. Aliquots (200 μL) were withdrawn in triplicate at 0, 15, 30, 60, and 120 minutes and combined with 800 μL of ice-cold 50/50 acetonitrile/deionized water to terminate the reaction. The positive controls, testosterone and propranolol, were run simultaneously with the test compounds in separate reactions. All samples were analyzed using LC-MS (or MS/MS). An LC-MRM-MS/MS method was used for metabolic stability. Also, Q1 full scan LC-MS methods were performed on the blank matrix and the test compound incubation samples. The Q1 scans served as survey scans to identify any sample unique peaks that might represent the possible metabolites. The masses of these potential metabolites can be determined from the Q1 scans.
The test compounds were evaluated in the human liver microsome assay described above along with paroxetine as a control. The columns of Table 2 labelled “% remaining” refer to the percentage of each test compound remaining after 30, 60 and 120 minute intervals in the human microsomal assay.

[3] = 30 mg oral solution, radiolabeled, healthy volunteers, cited from earlier work
[4] = molecular target: T1, CYP2D6 (Homo sapiens, UniProt P10635); conditions: mechanism-based; cited from earlier work
[5] = molecular target: T1, CYP2D6; conditions: clinical; cited from earlier work
[6] = cited from earlier work

T1 sequence (P10635 whole entry): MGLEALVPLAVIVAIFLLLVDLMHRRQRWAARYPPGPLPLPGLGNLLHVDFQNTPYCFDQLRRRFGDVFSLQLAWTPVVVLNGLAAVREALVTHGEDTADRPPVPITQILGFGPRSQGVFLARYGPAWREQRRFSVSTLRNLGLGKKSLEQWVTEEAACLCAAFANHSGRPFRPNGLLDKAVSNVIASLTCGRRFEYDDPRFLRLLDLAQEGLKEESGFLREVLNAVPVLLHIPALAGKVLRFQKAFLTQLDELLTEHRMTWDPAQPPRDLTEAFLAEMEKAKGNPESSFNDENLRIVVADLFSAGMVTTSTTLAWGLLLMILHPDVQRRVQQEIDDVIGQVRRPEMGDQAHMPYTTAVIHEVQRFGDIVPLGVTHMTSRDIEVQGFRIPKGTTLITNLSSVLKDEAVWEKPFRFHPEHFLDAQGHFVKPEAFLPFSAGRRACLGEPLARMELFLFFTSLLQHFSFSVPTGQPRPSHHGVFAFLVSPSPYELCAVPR

Structure (SMILES)	total immobility time during forced tail suspension [1]	% Remaining 30 min [2] [%]	% Remaining 60 min [2] [%]	% Remaining 120 min [2] [%]	stability in the microsome assay (in words) ([2]; human liver microsomes, summary of Table 2)	excreted in the feces as parent compound ([3]; 10-day period)	excreted in the feces, total ([3]; 10-day period)	excreted in the urine as metabolites ([3]; 10-day period) [%]	excreted in the urine as parent compound ([3]; 10-day period) [%]	excreted in the urine, total ([3]; 10-day post-dosing period)	inactivation of CYP2D6 (in words) [4]	reduction in CYP2D6 activity (in words) [5]	half-life, poor metabolizers versus extensive metabolizers ([6]; European cohort, low versus higher CYP2D6 activity)	coefficients of variability across Cmax, Cmin and AUC ([6]; steady state, test population)
CC(C)(C)OC(=O)N1CC[C@@H](c2ccc(F)cc2)[C@H](CO)C1 [Example 11, (3S,4R)-tert-butyl 4-(4-fluorophenyl)-3-(hydroxymethyl)piperidine-1-carboxylate]	statistical reduction	–	–	–	–	–	–	–	–	–	–	–	–	–
Cl.[2H]C1([2H])Oc2ccc(OC([2H])([2H])[C@@H]3CNCC[C@H]3c3ccc(F)cc3)cc2O1 [B, (3S,4R)-3-((2,2-dideuterobenzo[d][1,3]dioxol-5-yloxy)dideuteromethyl)-4-(4-fluorophenyl)piperidine hydrochloride]	–	22	10	6	–	–	–	–	–	–	–	–	–	–
Cl.[2H]C1([2H])Oc2ccc(OC[C@@H]3CNCC[C@H]3c3ccc(F)cc3)cc2O1 [A, (3S,4R)-3-((2,2-dideuterobenzo[d][1,3]dioxol-5-yloxy)methyl)-4-(4-fluorophenyl)piperidine hydrochloride]	–	29	26	16	–	–	–	–	–	–	–	–	–	–
Fc1ccc([C@@H]2CCNC[C@H]2COc2ccc3c(c2)OCO3)cc1 [Compound 1, (3S,4R)-3-((benzo[d][1,3]dioxol-5-yloxy)methyl)-4-(4-fluorophenyl)piperidine]	–	51	51	44	relative stability	less than 1%	About 36%	62	2	approximately 64%	highly potent, mechanism based inactivator	dose-dependent, highly significant reduction	approximately 3 fold	30-70%

From patent publication US20150196544A1, “NOVEL BENZO[d][1,3]-DIOXOL DERIVATIVES” (priority 2005, published 2015)
